{
  "source": "PubChem BioAssay AID1745844",
  "about": "(Carcinogenic Potency Database (CPDB), 2022)",
  "system": "rodent lifetime carcinogenesis bioassay, tumor incidence TD50",
  "experiment": "carcinogenic potency in animals, long-term in vivo studies, CPDB compilation (AID 1745844)",
  "note": "Active and inactive are the calls of the source. No rule for the calls is given here.",
  "data": [
    {"smiles": "[Cl][Sn][Cl]", "values": [
      {"measurement": "TD50", "setting": "mouse, strain B6C3F1, females, in feed, site: all sites, lesion: lymphoma, histiocytic type, dosed 105 weeks, study length 105 weeks", "value": 2550, "unit": "mg/kg/day"},
      {"measurement": "TD50", "setting": "mouse, strain B6C3F1, females, in feed, site: any site (literature study), lesion: several types, types named in the paper, dosed 105 weeks, study length 105 weeks", "value": 386, "unit": "mg/kg/day"},
      {"measurement": "TD50", "setting": "mouse, strain B6C3F1, females, in feed, site: liver, lesion: hepatocellular adenoma + hepatocellular carcinoma + neoplastic nodule, dosed 105 weeks, study length 105 weeks", "value": 1020, "unit": "mg/kg/day"},
      {"measurement": "TD50", "setting": "mouse, strain B6C3F1, females, in feed, site: liver, lesion: hepatocellular carcinoma, dosed 105 weeks, study length 105 weeks", "value": 1420, "unit": "mg/kg/day"},
      {"measurement": "TD50", "setting": "mouse, strain B6C3F1, females, in feed, site: pituitary gland, lesion: adenoma, dosed 105 weeks, study length 105 weeks", "value": "1390 mg/kg/day (inactive)"},
      {"measurement": "carcinogen call", "setting": "mouse, strain B6C3F1, males, in feed, site: any site (literature study), lesion: several types, types named in the paper, dosed 105 weeks, study length 105 weeks", "value": "negative (inactive)"},
      {"measurement": "carcinogen call", "setting": "mouse, strain Charles River CD1, both sexes, in drinking water, site: any site (literature study), lesion: benign tumor, dosed 104 weeks, study length 104 weeks", "value": "negative (inactive)"},
      {"measurement": "carcinogen call", "setting": "mouse, strain Charles River CD1, both sexes, in drinking water, site: any site (literature study), lesion: malignant tumor, dosed 104 weeks, study length 104 weeks", "value": "negative (inactive)"},
      {"measurement": "carcinogen call", "setting": "mouse, strain Charles River CD1, both sexes, in drinking water, site: any site (literature study), lesion: several types, types named in the paper, dosed 104 weeks, study length 104 weeks", "value": "negative (inactive)"},
      {"measurement": "carcinogen call", "setting": "mouse, strain Charles River CD1, both sexes, in drinking water, site: lung, lesion: adenoma, dosed 104 weeks, study length 104 weeks", "value": "negative (inactive)"},
      {"measurement": "carcinogen call", "setting": "mouse, strain Charles River CD1, both sexes, in drinking water, site: lung, lesion: several types, types named in the paper, dosed 104 weeks, study length 104 weeks", "value": "negative (inactive)"},
      {"measurement": "TD50", "setting": "rat, strain Fischer 344, females, in feed, site: any site (literature study), lesion: several types, types named in the paper, dosed 105 weeks, study length 104 weeks", "value": "12000 mg/kg/day (inactive)"},
      {"measurement": "TD50", "setting": "rat, strain Fischer 344, females, in feed, site: liver, lesion: hepatocellular adenoma + hepatocellular carcinoma + neoplastic nodule, dosed 105 weeks, study length 104 weeks", "value": 676000, "unit": "mg/kg/day"},
      {"measurement": "TD50", "setting": "rat, strain Fischer 344, males, in feed, site: any site (literature study), lesion: several types, types named in the paper, dosed 104 weeks, study length 104 weeks", "value": 180, "unit": "mg/kg/day"},
      {"measurement": "TD50", "setting": "rat, strain Fischer 344, males, in feed, site: lung, lesion: alveolar/bronchiolar adenoma, dosed 104 weeks, study length 104 weeks", "value": 951, "unit": "mg/kg/day"},
      {"measurement": "TD50", "setting": "rat, strain Fischer 344, males, in feed, site: thyroid gland, lesion: c-cell adenoma + c-cell carcinoma, dosed 104 weeks, study length 104 weeks", "value": "87.4 mg/kg/day (inactive)"},
      {"measurement": "TD50", "setting": "rat, strain Fischer 344, males, in feed, site: thyroid gland, lesion: c-cell carcinoma, dosed 104 weeks, study length 104 weeks", "value": 405, "unit": "mg/kg/day"},
      {"measurement": "carcinogen call", "setting": "rat, strain Long-Evans BLU:(LE), both sexes, in drinking water, site: any site (literature study), lesion: malignant tumor, dosed 156 weeks, study length 156 weeks", "value": "negative (inactive)"},
      {"measurement": "carcinogen call", "setting": "rat, strain Long-Evans BLU:(LE), both sexes, in drinking water, site: any site (literature study), lesion: one or several types, types not named, dosed 156 weeks, study length 156 weeks", "value": "negative (inactive)"},
      {"measurement": "carcinogen call", "setting": "rat, strain Long-Evans BLU:(LE), both sexes, in drinking water, site: liver, lesion: one or several types, types not named, dosed 156 weeks, study length 156 weeks", "value": "negative (inactive)"}
    ]},
    {"smiles": "NC(Cc1c[nH]c2ccccc12)C(=O)O", "note": "(stereo unspecified)", "values": [
      {"measurement": "carcinogen call", "setting": "rat, strain Fischer, males, in feed, site: liver, lesion: one or several types, types not named, dosed 98 weeks, study length 98 weeks", "value": "negative (inactive)"},
      {"measurement": "carcinogen call", "setting": "rat, strain Fischer, males, in feed, site: urinary bladder, lesion: one or several types, types not named, dosed 98 weeks, study length 98 weeks", "value": "negative (inactive)"}
    ]},
    {"smiles": "C[C@]12C=CC(=O)C=C1CC[C@@H]1[C@@H]2[C@@H](O)C[C@@]2(C)[C@H]1CC[C@]2(O)C(=O)COC(=O)CCCc1ccc(N(CCCl)CCCl)cc1", "values": [
      {"measurement": "TD50", "setting": "rat, strain Sprague-Dawley, females, by gavage, site: any site (literature study), lesion: benign tumor, dosed 78 weeks, study length 104 weeks", "value": "14 mg/kg/day (inactive)"},
      {"measurement": "TD50", "setting": "rat, strain Sprague-Dawley, females, by gavage, site: any site (literature study), lesion: malignant tumor, dosed 78 weeks, study length 104 weeks", "value": "21.6 mg/kg/day (inactive)"},
      {"measurement": "TD50", "setting": "rat, strain Sprague-Dawley, females, by gavage, site: external auditory canal, lesion: squamous-cell carcinoma, dosed 78 weeks, study length 104 weeks", "value": 19.2, "unit": "mg/kg/day"}
    ]},
    {"smiles": "CC(C(O)c1ccccc1)N(C)N=O", "note": "(stereo unspecified)", "values": [
      {"measurement": "TD50", "setting": "rat, strain Sprague-Dawley, males, by gavage, site: any site (literature study), lesion: several types, types named in the paper, dosed 104 weeks, study length 104 weeks", "value": 40, "unit": "mg/kg/day"},
      {"measurement": "TD50", "setting": "rat, strain Sprague-Dawley, males, by gavage, site: forestomach, lesion: papilloma, dosed 104 weeks, study length 104 weeks", "value": 239, "unit": "mg/kg/day"},
      {"measurement": "TD50", "setting": "rat, strain Sprague-Dawley, males, by gavage, site: forestomach, lesion: squamous-cell carcinoma, dosed 104 weeks, study length 104 weeks", "value": 740, "unit": "mg/kg/day"},
      {"measurement": "TD50", "setting": "rat, strain Sprague-Dawley, males, by gavage, site: liver, lesion: hepatocellular carcinoma, dosed 104 weeks, study length 104 weeks", "value": 138, "unit": "mg/kg/day"},
      {"measurement": "TD50", "setting": "rat, strain Sprague-Dawley, males, by gavage, site: liver, lesion: several types, types named in the paper, dosed 104 weeks, study length 104 weeks", "value": 95.2, "unit": "mg/kg/day"},
      {"measurement": "TD50", "setting": "rat, strain Sprague-Dawley, males, by gavage, site: lung, lesion: several types, types named in the paper, dosed 104 weeks, study length 104 weeks", "value": 217, "unit": "mg/kg/day"}
    ]}
  ]
}
